Reference: US10493046B2, “5-hydroxytryptamine 1B receptor-stimulating agent for use as a promoter of satellite cells self-renewal and/or differentiation” (INSTITUT PASTEUR, priority 2015, dated 2019)

Legend:
Format in all cases: in vivo, mouse
[1] = test system: Tibialis anterior; assay: Muscle regeneration after notexin injury of tibialis anterior
Protocol: Animals were anesthetized with ketamine (Imalgene1000 100 mg/Kg Merial) and Xylazine (Rompun2% 20 mg/Kg Bayer) prior to injury. Animals were hydrated and treated with analgesic (Buprenorphin Axience 0.3 mg/kg) twice a day for 4 d following injury. For the injury, mice were anesthetized as previously described and 10 μl of 12.5 μg/ml Notexin (Lotaxan) was injected in the Tibialis anterior. All protocols were reviewed by the Institut Pasteur, the competent authority, for compliance with the French and European regulations on Animal Welfare and with Public Health Service recommendations. This project has been reviewed and approved (#2013-0044) by the Institut Pasteur ethic committee (C2EA 89-CETEA).
(§1) Tibialis anterior (TA) was carefully dissected and snap frozen in liquid-nitrogen-cooled isopentane for a few minutes and stored at −80° C. prior to cryosectioning (10 μm sections). Sections were kept at room temperature overnight before staining. Sections were then rehydrated in PBS for 10 minutes and fixed in 10% formalin for 3 minutes. The sections were then routinely stained with haematoxylin and eosin (HE) using an automated stain machine or manually with red sirius.
(§2) Immunostaining was performed on cryosections fixed with 4% paraformaldehyde (PFA EMS#15710) in cold PBS, permeabilized with 0.5% Triton X-100 20 min at room temperature, washed, and blocked with 10% BSA for 30 min. Sections were incubated with primary antibodies overnight at 4° C. (see Table 1 below) and with Alexa-conjugated secondary antibodies 1/250 and Hoechst for 45 minutes. Sections were then analysed using an automated axioscan (Zeiss) or inverted Observer.Z1 Apotome (Zeiss). For apoptosis assessment, cells were collected in 2% serum, spun on polyD-lysine (Sigma-Aldrich#P6407), and immediately fixed with PFA 4%.
For image analysis (fibrosis quantification), ImageJ 1.46r software was using between 10 different photos randomly taken per section and 3 sections minimum per experimental group. The pictures were converted in a binary image and the pixel values then collected. For fibre size, the sections were immunostained with rabbit anti Laminin (Sigma-Aldrich #L9393) diluted at 1/200, overnight at 4° C. Secondary Donkey ant Rabbit 488 (DL488 JacksonImmuno #711486152) were used at 1/200 45 minutes at room temperature. The fibre perimeter was done automatically by using Pixcavator® software.

[2] = test system: Mdx mice; assay: Mdx mice (Duchenne muscular dystrophy model), muscle histology
Protocol: as §1, §2
The fiber size was also overall bigger in Mdx treated-animals (4.241±0.9 pixels in treated vs. 3.192±0.3 in placebo p=0.051) (FIG. 8b). […] The number of vessels increased in the treated mice (1459±327 vessels per mm^2) when compared to the placebo (942.4±113 vessels […], p=0.008) (FIG. 8e). […] This observation is in line with the decreased infiltration of inflammatory cells observed in the muscle (9.6±3.7 Gr1+ cells observed per section in the placebo vs. 4±2.4 Gr1+ cells in the treated mice p=0.04) (FIG. 8i).

[3] = test system: CD31 expressing cells; assay: Ex vivo Matrigel angiogenesis assay (subcutaneous plugs); details: C57Bl/6 treated P.O for 6 weeks
From the text: To further confirm the above results, an ex vivo Matrigel angiogenesis assay was used. To do so, a cold Matrigel was introduced subcutaneously, which solidifies and allows the penetration by host cells and the formation of new blood vessels in C57Bl/6 treated P.O for 6 weeks.

[4] = test system: satellite cells; assay: BrdU cell division of satellite cells during treatment; details: BrdU during the entire per os treatment
From the text: (a) Schematic representation of fluoxetine delivery and sacrifice time points. (b) Number of satellite cells per mm^2 on section. […] The arrows point to the satellite cells. […] (k-l) Representative image of a vessel (arrows) in the Matrigel plug detected by HE staining in placebo (k) or fluoxetine (l) treated mice. (m) Vessel length 4 days post-plating of Cytodex® beads covered with HUVEC. (n) Representative image of a Cytodex® bead 4 days-post plating in presence of placebo plasma. […] Using immunostainings and FACS cell sorting in Figures (p) to (v): (p) Number of Pax7GFP expressing cells per digested TA (expressed as an absolute number) counted by FACS. (q) Representative FACS profile of digested TA of TgPax7nGFP mouse. […] TA muscle was digested and cells were isolated by FACS, spined on a slide and immuno-stained against BrdU. (s) Percentage of BrdU+ cells in Tg:Pax7nGFP mice (n=3 per time point). […] Data are represented as mean±s.d. *P<0.05; **P<0.01; ***P<0.001. Scale bar represents 100 μm. For Figures (p) to (v): n=7 mice used per condition, except for BrdU experiments n=3 per time point. Data are represented as mean±s.d. **P<0.01. Scale bar represents 100 μm.

[5] = test system: cytokines; assay: Plasmatic cytokine levels by Luminex after notexin injury; details: injured with fluoxetine treatment
From the text: (§3) Snap frozen plasma samples (n=6 per condition) were thawed out, and supernatant was processed for Luminex® multiple cytokine and chemokine analysis (Bio-Plex® Pro™ Mouse Cytokine Standard 23-Plex, Group I and Standard 9-Plex, Group II). Normalization was done by sample weight of frozen muscle.

[6] = test system: Mdx mice; assay: Grip strength test in mdx mice; details: fluoxetine treated mdx mice, 6 weeks; 4 limbs
Protocol: The grip strength test is a non-invasive method designed to evaluate mouse muscle force in vivo. A grip meter (Bio-GT3, BIOSEB), attached to a force transducer, measures the peak force generated. […] Five trials were conducted and, before statistical analysis, a mean value was calculated for each mouse using the tree median data. Results are expressed as the result of tree peak forces (in g), normalized to the body weight (in g).
This was confirmed on soleus muscle (data not shown).

[7] = test system: cytokines; assay: Plasmatic cytokine levels by Luminex in Mdx mice; details: fluoxetine P.O. 6 weeks
From the text: as §3

[8] = notexin injury after fluoxetine treatment
[9] = fluoxetine P.O. 6 weeks, Mdx mice

SMILES: COc1ccc(NC(=O)c2ccc(-c3ccc(-c4noc(C)n4)cc3C)cc2)cc1N1CCN(C)CC1 [GR127935]
- Effect of the antagonist on the beneficial effects of fluoxetine after injury ([1]; antagonist together with fluoxetine, SC, differentiating cells, fiber size, calcium deposits, fibrosis, Gr1 and F4/80 cells): suppressed the beneficial effects of fluoxetine treatment
- Effect of GR127935 on the beneficial effects of vortioxetine after injury ([1]; vortioxetine 12 days-treatment plus GR127935, SC, differentiating cells, fiber size, calcium deposits, fibrosis, Gr1 and F4/80 cells): repressed the beneficial effects of the vortioxetine 12 days-treatment
- Beneficial effects of fluoxetine when co-treated with 5-HT1B inhibitor ([2]; Mdx mice treated with fluoxetine and a 5-HT1B inhibitor): the beneficial effects were lost

SMILES: CNCCC(Oc1ccc(C(F)(F)F)cc1)c1ccccc1 (centres unmarked) [fluoxetine]
- Number of CD31 expressing cells in Matrigel plugs [3]: 72.9±22.6 CD31+ cells per mm^2
- SC population dividing (BrdU) [4]: 90%
- IL-6 level after injury [5]: 2459 ± 920 pg/µL
- Calcium deposits 14 days post-injury [1, 8]: 3.2±3 per mm^2
- Differentiating (Myogenin+) cells 4 days post-injury vs placebo [1, 8]: more cells were already differentiating
- Endomysial fibrosis 14 days post-injury [1, 8]: 2.2±0.7 % of total muscle area
- F4/80 inflammatory cells 14 days post-injury [1, 8]: 4.7±2.7 cells per section
- Gr1+ inflammatory cells 14 days post-injury [1, 8]: 4.1±2.6 cells per section
- Number of fibers 14 days post-injury vs placebo [1, 8]: remained the same
- Regenerating fiber size 14 days post-injury [1, 8]: 129±12.6 μm^2
- Number of SC 4 days post-injury ([1]; notexin injury after fluoxetine treatment, Tg:Pax7nGFP mice): 459±283 per mm^2
- Number of vessels 28 days post-injury vs placebo ([1]; notexin injury after fluoxetine treatment, p=0.036): higher
- Number of SC 28 days post-injury vs placebo ([1]; notexin injury after fluoxetine treatment, p=0.076): higher
- Number of SC per TA after 3 rounds of injury ([1]; several rounds of injury after fluoxetine treatment): remained constant
- Total muscle force increase [6]: 56%
- Level of IL6 [7]: 34.52 ± 21 pg/mL
- Level of IL10 [7]: 99.6 ± 56 pg/mL
- Fiber size [2, 9]: 4.241±0.9 pixels
- Foci of necrotic fiber (necrotic area) [2, 9]: 2890 ± 803 µm²
- Gr1+ cells in the muscle [2, 9]: 4±2.4 cells per section
- Number of cycling satellite cells vs placebo [2, 9]: decreased
- Number of regenerating foci vs placebo [2, 9]: decreased
- Number of vessels [2, 9]: 1459±327 vessels per mm^2
